Key:
PDK1 = system: PDK1; parameters: method as in Gao et al. [42]; details: ref Gao et al. [42], cited from earlier work
TYRO3 = system: TYRO3; parameters: method as in Gao et al. [42]; details: ref Gao et al. [42], cited from earlier work
IRAK1 = system: IRAK1; parameters: method as in Gao et al. [42]; details: ref Gao et al. [42], cited from earlier work
FER = system: FER; parameters: method as in Gao et al. [42]; details: ref Gao et al. [42], cited from earlier work
LYN B = LYN B (Homo sapiens, UniProt P07948); parameters: method as in Gao et al. [42]; details: ref Gao et al. [42], cited from earlier work
FYN A [1] = target: T1, FYN A (Homo sapiens, UniProt P06241); assay: ADP-Glo Kinase Assay, tivozanib off-target testing; assay type: biochemical; details: read-out: Experimental validation pIC50 (converted)
Procedure: (§1) The kinase inhibitors were dissolved to 1X Kinase Buffer with 5% DMSO by transferring 200nL of the buffer using ECHO525 Liquid handler (Labcyte). […] The dissolved kinases and 2.5X kinase buffer controls were transferred at 400nL using ECHO525. […] The 2.5X ATP/substrate working stocks were transferred at 400nL using ECHO525.
(§2) For the ADP detection, 1 μl ADP-Glo reagent was dispensed (Thermo Scientific Multidrop Combi nL). […] Next, 2 μl kinase detection reagent was dispensed with Thermo Scientific Multidrop Combi nL.
(§3) Kinase assay, kinase dilution and substrate buffers were as indicated by the manufacturer (Promega). The assays were performed in the same way as with the kinases from the Kinase Selectivity Profiling System + ADP-Glo Assay kits (see previous section). All the assays were done in three individual experiments, each having three replicates.
(§4) IC50 values from all the experiments were obtained with GraphPad Prism 7 (GraphPad Software, Inc. California, USA) using inhibitor vs. response—variable slope (four parameters) analysis. […] X-axis scale was set to log10.

BLK = system: BLK; parameters: method as in Gao et al. [42]; details: ref Gao et al. [42], cited from earlier work
IGF1R = IGF1R (Homo sapiens, UniProt P08069); parameters: method as in Gao et al. [42]; details: ref Gao et al. [42]; cited from earlier work
BRK = BRK (Homo sapiens, UniProt Q13882); parameters: method as in Gao et al. [42]; details: ref Gao et al. [42], cited from earlier work
RPS6KB1 = target: T2, RPS6KB1 (Homo sapiens, UniProt P23443); assay: ADP-Glo Kinase Assay, tivozanib off-target testing; assay type: biochemical; details: read-out: Experimental validation pIC50 (converted)
T2 construct: purchased SignalChem R21-10H-10
Procedure: as §1, §2, §3, §4

HIPK2 = system: HIPK2; parameters: method as in Gao et al. [42]; details: ref Gao et al. [42], cited from earlier work
PLK3 = system: PLK3; parameters: method as in Gao et al. [42]; details: ref Gao et al. [42], cited from earlier work
FLT4 = FLT4 (Homo sapiens, UniProt P35916); parameters: method as in Gao et al. [42]; details: ref Gao et al. [42], cited from earlier work
MAPKAPK5 = system: MAPKAPK5; parameters: method as in Gao et al. [42]; details: ref Gao et al. [42], cited from earlier work
FMS = system: FMS; parameters: method as in Gao et al. [42]; details: ref Gao et al. [42], cited from earlier work
GSK3b = system: GSK3b; parameters: method as in Gao et al. [42]; details: ref Gao et al. [42], cited from earlier work
MAPKAPK2 = system: MAPKAPK2; parameters: method as in Gao et al. [42]; details: ref Gao et al. [42], cited from earlier work
ROCK2 = system: ROCK2; parameters: method as in Gao et al. [42]; details: ref Gao et al. [42], cited from earlier work
PIM1 = system: PIM1; parameters: method as in Gao et al. [42]; details: ref Gao et al. [42], cited from earlier work
CSNK1G3 = system: CSNK1G3; parameters: method as in Gao et al. [42]; details: ref Gao et al. [42], cited from earlier work
RET = system: RET; parameters: method as in Gao et al. [42]; details: ref Gao et al. [42], cited from earlier work
FRK = target: T3, FRK (Homo sapiens, UniProt P42685); parameters: method as in Gao et al. [42]; details: ref Gao et al. [42], cited from earlier work
T3 construct: purchased SignalChem F14-11G-10

FYN A [2] = target: T1, FYN A; parameters: method as in Gao et al. [42]; details: ref Gao et al. [42], cited from earlier work
CDC42BPA = system: CDC42BPA; parameters: method as in Gao et al. [42]; details: ref Gao et al. [42], cited from earlier work
FES = system: FES; parameters: method as in Gao et al. [42]; details: ref Gao et al. [42], cited from earlier work
RPS6KA5 = system: RPS6KA5; parameters: method as in Gao et al. [42]; details: ref Gao et al. [42], cited from earlier work
MARK2 = system: MARK2; parameters: method as in Gao et al. [42]; details: ref Gao et al. [42], cited from earlier work
CHK2 = system: CHK2; parameters: method as in Gao et al. [42]; details: ref Gao et al. [42], cited from earlier work
Aurora A = target: T4, Aurora A (Homo sapiens, UniProt O14965); assay: ADP-Glo Kinase Assay, tivozanib off-target testing; assay type: biochemical; details: read-out: Experimental validation pIC50 (converted)
T4 construct: purchased SignalChem A28-18G-10
T4 sequence (O14965 1-403): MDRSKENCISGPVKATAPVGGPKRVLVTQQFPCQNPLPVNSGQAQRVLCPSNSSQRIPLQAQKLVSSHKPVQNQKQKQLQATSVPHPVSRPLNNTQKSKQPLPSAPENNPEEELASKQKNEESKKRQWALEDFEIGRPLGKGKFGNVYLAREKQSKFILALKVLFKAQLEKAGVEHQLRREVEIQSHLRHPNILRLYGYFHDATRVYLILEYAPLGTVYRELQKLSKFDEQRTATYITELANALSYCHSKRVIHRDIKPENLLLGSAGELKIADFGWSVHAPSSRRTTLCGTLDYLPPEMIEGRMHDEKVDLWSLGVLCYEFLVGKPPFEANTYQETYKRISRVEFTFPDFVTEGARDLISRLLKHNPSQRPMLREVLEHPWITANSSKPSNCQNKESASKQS
Procedure: as §1, §2, §3, §4

T1 sequence (P06241 whole entry): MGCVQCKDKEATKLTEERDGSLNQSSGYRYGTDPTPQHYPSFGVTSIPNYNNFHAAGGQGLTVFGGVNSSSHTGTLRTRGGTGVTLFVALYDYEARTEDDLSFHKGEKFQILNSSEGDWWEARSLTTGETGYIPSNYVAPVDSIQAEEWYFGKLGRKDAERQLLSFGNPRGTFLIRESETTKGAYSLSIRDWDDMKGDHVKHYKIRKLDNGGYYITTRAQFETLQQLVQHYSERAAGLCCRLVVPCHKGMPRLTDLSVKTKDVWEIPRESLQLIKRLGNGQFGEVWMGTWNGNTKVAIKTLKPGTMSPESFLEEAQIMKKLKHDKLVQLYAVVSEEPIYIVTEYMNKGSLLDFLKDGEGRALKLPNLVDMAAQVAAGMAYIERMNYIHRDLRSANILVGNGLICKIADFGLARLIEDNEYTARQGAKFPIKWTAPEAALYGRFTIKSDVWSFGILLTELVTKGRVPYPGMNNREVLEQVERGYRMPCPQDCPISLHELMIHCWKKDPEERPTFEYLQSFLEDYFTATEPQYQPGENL
Sequence of LYN B (P07948 1-491 isoform P07948-2): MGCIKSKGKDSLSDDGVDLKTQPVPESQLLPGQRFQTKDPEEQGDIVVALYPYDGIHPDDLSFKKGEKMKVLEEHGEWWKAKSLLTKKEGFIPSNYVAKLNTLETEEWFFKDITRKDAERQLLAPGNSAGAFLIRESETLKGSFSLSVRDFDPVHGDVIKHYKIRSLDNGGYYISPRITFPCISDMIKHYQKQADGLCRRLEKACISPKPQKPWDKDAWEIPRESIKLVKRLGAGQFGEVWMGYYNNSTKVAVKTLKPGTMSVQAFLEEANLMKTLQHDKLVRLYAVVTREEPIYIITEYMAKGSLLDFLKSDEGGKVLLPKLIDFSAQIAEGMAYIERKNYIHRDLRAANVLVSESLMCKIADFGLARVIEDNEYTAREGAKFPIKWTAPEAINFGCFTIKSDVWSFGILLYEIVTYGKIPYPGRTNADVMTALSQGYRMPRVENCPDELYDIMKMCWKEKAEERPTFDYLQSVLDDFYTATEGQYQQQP
Sequence of FLT4 (P35916 25-1363): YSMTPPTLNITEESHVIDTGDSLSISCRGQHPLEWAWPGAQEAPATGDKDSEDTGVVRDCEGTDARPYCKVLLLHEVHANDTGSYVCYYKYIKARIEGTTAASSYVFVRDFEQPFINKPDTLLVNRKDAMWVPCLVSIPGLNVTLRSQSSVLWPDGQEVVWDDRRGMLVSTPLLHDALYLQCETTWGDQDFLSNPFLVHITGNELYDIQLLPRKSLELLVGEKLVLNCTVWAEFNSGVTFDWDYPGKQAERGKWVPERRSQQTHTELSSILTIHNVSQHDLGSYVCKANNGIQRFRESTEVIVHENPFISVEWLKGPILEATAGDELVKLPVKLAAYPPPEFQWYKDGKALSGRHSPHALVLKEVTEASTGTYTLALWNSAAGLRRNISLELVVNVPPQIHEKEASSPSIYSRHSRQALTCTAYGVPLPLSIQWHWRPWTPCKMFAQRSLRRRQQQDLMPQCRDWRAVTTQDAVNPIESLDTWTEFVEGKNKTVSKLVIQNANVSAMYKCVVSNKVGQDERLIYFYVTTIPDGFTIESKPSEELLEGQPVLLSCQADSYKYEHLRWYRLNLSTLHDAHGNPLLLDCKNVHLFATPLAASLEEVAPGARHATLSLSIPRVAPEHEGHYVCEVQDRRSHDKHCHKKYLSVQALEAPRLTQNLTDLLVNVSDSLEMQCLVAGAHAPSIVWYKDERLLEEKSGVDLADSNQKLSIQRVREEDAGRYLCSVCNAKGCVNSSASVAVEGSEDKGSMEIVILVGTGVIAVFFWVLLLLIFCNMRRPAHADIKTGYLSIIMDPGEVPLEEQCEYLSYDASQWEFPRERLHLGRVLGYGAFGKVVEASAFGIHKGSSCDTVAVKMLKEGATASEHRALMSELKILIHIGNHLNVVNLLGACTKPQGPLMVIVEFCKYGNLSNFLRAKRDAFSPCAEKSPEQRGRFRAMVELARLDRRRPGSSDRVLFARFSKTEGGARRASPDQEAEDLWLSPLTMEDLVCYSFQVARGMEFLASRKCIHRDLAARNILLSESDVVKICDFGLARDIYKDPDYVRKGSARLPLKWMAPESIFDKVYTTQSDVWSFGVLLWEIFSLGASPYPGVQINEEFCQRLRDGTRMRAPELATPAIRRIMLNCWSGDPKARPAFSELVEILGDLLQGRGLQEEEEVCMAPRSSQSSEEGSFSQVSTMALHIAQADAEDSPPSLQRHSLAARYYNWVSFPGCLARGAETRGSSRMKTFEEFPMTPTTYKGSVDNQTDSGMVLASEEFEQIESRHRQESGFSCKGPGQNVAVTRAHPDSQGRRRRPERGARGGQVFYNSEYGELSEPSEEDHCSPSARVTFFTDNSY
T3 sequence (P42685 whole entry): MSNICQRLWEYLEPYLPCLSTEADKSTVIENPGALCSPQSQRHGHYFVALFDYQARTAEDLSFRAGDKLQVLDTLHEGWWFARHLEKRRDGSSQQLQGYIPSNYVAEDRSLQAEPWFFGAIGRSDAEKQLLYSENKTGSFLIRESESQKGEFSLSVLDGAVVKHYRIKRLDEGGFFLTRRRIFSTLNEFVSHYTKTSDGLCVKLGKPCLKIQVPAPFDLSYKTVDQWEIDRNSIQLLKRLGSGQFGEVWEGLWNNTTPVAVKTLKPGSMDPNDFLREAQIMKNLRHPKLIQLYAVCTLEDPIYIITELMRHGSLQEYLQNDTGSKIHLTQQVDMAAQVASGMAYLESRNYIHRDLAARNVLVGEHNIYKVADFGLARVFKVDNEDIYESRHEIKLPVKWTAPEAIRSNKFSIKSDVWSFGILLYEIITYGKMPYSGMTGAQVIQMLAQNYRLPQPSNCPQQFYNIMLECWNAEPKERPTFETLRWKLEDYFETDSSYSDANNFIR
Sequence of BRK (Q13882 whole entry): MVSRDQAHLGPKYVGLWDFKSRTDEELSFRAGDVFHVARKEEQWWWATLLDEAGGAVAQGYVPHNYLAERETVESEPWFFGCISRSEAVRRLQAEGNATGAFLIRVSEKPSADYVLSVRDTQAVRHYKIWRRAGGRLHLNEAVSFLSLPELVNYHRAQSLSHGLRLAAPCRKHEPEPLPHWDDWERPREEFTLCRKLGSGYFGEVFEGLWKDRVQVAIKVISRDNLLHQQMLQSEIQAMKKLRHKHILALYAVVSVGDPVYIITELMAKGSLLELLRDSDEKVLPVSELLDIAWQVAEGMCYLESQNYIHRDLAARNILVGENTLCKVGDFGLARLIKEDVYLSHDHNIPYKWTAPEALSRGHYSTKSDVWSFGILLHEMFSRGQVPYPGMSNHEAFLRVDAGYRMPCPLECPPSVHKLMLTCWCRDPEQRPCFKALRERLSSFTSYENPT
Sequence of IGF1R (P08069 31-1367): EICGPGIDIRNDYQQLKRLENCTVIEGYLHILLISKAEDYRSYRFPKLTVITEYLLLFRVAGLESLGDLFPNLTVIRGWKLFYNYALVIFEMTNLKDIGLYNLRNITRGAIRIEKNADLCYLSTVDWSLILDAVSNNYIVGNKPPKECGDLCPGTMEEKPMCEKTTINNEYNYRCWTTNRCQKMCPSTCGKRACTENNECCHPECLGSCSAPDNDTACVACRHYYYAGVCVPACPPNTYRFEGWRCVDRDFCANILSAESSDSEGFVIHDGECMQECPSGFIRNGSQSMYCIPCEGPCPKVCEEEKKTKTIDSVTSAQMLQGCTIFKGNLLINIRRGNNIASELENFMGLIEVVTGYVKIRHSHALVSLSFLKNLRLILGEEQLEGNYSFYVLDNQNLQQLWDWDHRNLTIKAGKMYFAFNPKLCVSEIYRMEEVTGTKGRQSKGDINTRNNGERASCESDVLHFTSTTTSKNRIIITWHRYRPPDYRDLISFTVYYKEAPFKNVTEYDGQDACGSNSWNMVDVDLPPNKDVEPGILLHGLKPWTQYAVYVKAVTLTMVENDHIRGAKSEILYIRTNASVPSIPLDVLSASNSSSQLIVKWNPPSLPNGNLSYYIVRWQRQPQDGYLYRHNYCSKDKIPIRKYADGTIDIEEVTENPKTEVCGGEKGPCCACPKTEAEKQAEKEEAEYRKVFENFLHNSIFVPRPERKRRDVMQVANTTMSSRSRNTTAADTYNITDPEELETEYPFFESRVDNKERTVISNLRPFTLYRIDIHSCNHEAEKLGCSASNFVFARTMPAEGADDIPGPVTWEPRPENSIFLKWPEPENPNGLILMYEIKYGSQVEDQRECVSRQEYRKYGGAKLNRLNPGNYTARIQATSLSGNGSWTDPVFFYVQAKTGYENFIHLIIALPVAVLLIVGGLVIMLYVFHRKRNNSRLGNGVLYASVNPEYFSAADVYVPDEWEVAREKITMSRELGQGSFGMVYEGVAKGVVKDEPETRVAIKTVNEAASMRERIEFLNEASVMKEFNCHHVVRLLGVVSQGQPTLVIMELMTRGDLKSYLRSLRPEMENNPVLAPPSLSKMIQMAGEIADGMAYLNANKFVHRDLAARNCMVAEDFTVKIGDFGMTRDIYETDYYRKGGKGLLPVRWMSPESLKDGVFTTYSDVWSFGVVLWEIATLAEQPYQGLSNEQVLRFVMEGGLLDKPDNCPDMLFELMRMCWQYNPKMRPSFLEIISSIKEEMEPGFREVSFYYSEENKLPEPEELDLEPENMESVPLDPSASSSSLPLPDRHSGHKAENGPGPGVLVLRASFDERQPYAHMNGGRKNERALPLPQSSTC

## COc1cc2nccc(Oc3ccc(NC(=O)Nc4cc(C)on4)c(Cl)c3)c2cc1OC [TIVOZANIB, Tivozanib]
PDK1; 1 µM
  Gao et al. % of activity remaining at 1 µM: 110%
PDK1; 10 µM
  Gao et al. % of activity remaining at 10 µM: 116%
TYRO3; 1 µM
  Gao et al. % of activity remaining at 1 µM: 10%
TYRO3; 10 µM
  Gao et al. % of activity remaining at 10 µM: 8%
IRAK1; 1 µM
  Gao et al. % of activity remaining at 1 µM: 82%
IRAK1; 10 µM
  Gao et al. % of activity remaining at 10 µM: 92%
FER; 1 µM
  Gao et al. % of activity remaining at 1 µM: 87%
FER; 10 µM
  Gao et al. % of activity remaining at 10 µM: 16%
LYN B; 1 µM
  Gao et al. % of activity remaining at 1 µM: -1%
LYN B; 10 µM
  Gao et al. % of activity remaining at 10 µM: 2%
FYN A [1]
  IC50: 0.398 µM
BLK; 1 µM
  Gao et al. % of activity remaining at 1 µM: 2%
BLK; 10 µM
  Gao et al. % of activity remaining at 10 µM: 0%
IGF1R
  Gao et al. % of activity remaining at 1 µM: 135%
BRK; 1 µM
  Gao et al. % of activity remaining at 1 µM: 2%
BRK; 10 µM
  Gao et al. % of activity remaining at 10 µM: -1%
RPS6KB1
  IC50: > 12.5 µM
HIPK2; 1 µM
  Gao et al. % of activity remaining at 1 µM: 94%
HIPK2; 10 µM
  Gao et al. % of activity remaining at 10 µM: 81%
PLK3; 1 µM
  Gao et al. % of activity remaining at 1 µM: 85%
PLK3; 10 µM
  Gao et al. % of activity remaining at 10 µM: 87%
FLT4; 1 µM
  Gao et al. % of activity remaining at 1 µM: -1%
FLT4; 10 µM
  Gao et al. % of activity remaining at 10 µM: -1%
MAPKAPK5; 1 µM
  Gao et al. % of activity remaining at 1 µM: 99%
MAPKAPK5; 10 µM
  Gao et al. % of activity remaining at 10 µM: 70%
FMS; 1 µM
  Gao et al. % of activity remaining at 1 µM: 0%
FMS; 10 µM
  Gao et al. % of activity remaining at 10 µM: 0%
GSK3b; 1 µM
  Gao et al. % of activity remaining at 1 µM: 104%
GSK3b; 10 µM
  Gao et al. % of activity remaining at 10 µM: 94%
MAPKAPK2; 1 µM
  Gao et al. % of activity remaining at 1 µM: 85%
MAPKAPK2; 10 µM
  Gao et al. % of activity remaining at 10 µM: 100%
ROCK2; 1 µM
  Gao et al. % of activity remaining at 1 µM: 76%
ROCK2; 10 µM
  Gao et al. % of activity remaining at 10 µM: 51%
PIM1; 1 µM
  Gao et al. % of activity remaining at 1 µM: 95%
PIM1; 10 µM
  Gao et al. % of activity remaining at 10 µM: 86%
CSNK1G3; 1 µM
  Gao et al. % of activity remaining at 1 µM: 104%
CSNK1G3; 10 µM
  Gao et al. % of activity remaining at 10 µM: 93%
RET; 1 µM
  Gao et al. % of activity remaining at 1 µM: 0%
RET; 10 µM
  Gao et al. % of activity remaining at 10 µM: -1%
FRK; 1 µM
  Gao et al. % of activity remaining at 1 µM: 2%
FRK; 10 µM
  Gao et al. % of activity remaining at 10 µM: -3%
FYN A [2]; 1 µM
  Gao et al. % of activity remaining at 1 µM: 5%
FYN A [2]; 10 µM
  Gao et al. % of activity remaining at 10 µM: 1%
CDC42BPA; 1 µM
  Gao et al. % of activity remaining at 1 µM: 116%
CDC42BPA; 10 µM
  Gao et al. % of activity remaining at 10 µM: 102%
FES; 1 µM
  Gao et al. % of activity remaining at 1 µM: 78%
FES; 10 µM
  Gao et al. % of activity remaining at 10 µM: 46%
RPS6KA5; 1 µM
  Gao et al. % of activity remaining at 1 µM: 107%
RPS6KA5; 10 µM
  Gao et al. % of activity remaining at 10 µM: 80%
MARK2; 1 µM
  Gao et al. % of activity remaining at 1 µM: 98%
MARK2; 10 µM
  Gao et al. % of activity remaining at 10 µM: 106%
CHK2; 1 µM
  Gao et al. % of activity remaining at 1 µM: 79%
CHK2; 10 µM
  Gao et al. % of activity remaining at 10 µM: 30%
Aurora A
  IC50: > 12.5 µM

Source: paper PMC5560747, “Computational-experimental approach to drug-target interaction mapping: A case study on kinase inhibitors” (PLoS Computational Biology, 2017)
